Measured values reported in US20050159594A1, “Eplerenone crystal form exhibiting enhanced dissolution rate” (Pharmacia Corporation, priority 1995, published 2005).
≈ marks a conversion by molar mass, not a printed value.

What was measured:
Format in all cases: physicochemical
[1] = Aqueous solubility of Form L eplerenone; details: for solubility: phosphate buffer, pH 7, aqueous, pH 7 (100 mM phosphate buffer)
Experimental: The aqueous solubility of Form L eplerenone was measured at pH 7 (100 mM phosphate buffer) at 5, 25 and 40° C. Approximately 30 mg of Form L eplerenone was mixed with approximately 10 ml of buffer to form a slurry of eplerenone at both 5 and 25° C. Approximately 40 mg of […] eplerenone was mixed with approximately 10 ml of buffer to form a slurry of eplerenone at 40° C. Samples were prepared in duplicate for each condition. The slurries were allowed to equilibrate in water shaker baths at the appropriate temperature and the solutions were analyzed for eplerenone content by ultraviolet visible analysis (245 nm) at time intervals of 1, 5, 12, 19, 27 and 36 days. Data from each temperature were appropriately averaged to determine the solubility of eplerenone at each temperature and are reported in Table 8.

[2] = Slurry conversion / thermodynamic stability of Form H versus Form L
Experimental: Approximately 150 mg of Form L eplerenone and 150 mg of Form H eplerenone were added to 5 ml ethyl acetate. The resulting slurry was magnetically stirred at 300 rpm overnight. The next day a sample of the resulting solid was collected by filtration.

[3] = Intrinsic dissolution rate of eplerenone polymorph samples
Experimental: Intrinsic dissolution rates were measured for the following four eplerenone polymorph samples: (i) Form L eplerenone prepared by direct crystallization from acetonitrile using water as an anti-solvent in the same manner as in Example 11, Procedure B; (ii) Form H eplerenone prepared by digestion in ethanol in the same manner as in Example 10, Procedure A, (iii) a mixture of 5% Form H and 95% Form L; and (iv) Form L eplerenone that was micronized to provide the following particle size distribution: 10% by weight of the particles under 9 μm, 50% by weight of the particles under 22 μm, and 90% by weight of the particles under 41 μm.
Eplerenone in an amount of 150 mg was weighed and placed into a VanKel intrinsic dissolution cavity. The powder was compressed at 8280 kPa using a Carver press to form tablets. The sample was then mounted on the intrinsic dissolution apparatus. The dissolution medium used was 1% sodium dodecyl sulfate (SDS) in HPLC water. All tests were conducted at 37° C. for 2 hours. […] Samples were drawn at determined intervals for the determination of rate of dissolution. […] The samples were analyzed by UV absorbance detection at 243 nm. Intrinsic dissolution rates were calculated from the slope of the linear portion of the concentration versus time profiles corrected for volume and normalized for the surface area of the dissolution tablet (0.5 cm^2).

Solid form of residual solids after equilibration (DSC, TGA) ([1]; aqueous slurry pH 7, end of the 36 day equilibration)	solubility ([1]; 5 °C) [µg/mL]	solubility ([1]; 25 °C) [µg/mL]	solubility ([1]; 40 °C) [µg/mL]	Dissolution rate relative to Form L eplerenone (faster by) ([3]; aqueous medium, temperatures below the enantiotropic transition temperature)	Solid form after slurry conversion (XRPD) ([2]; 150 mg Form L + 150 mg Form H in 5 ml ethyl acetate, stirred overnight)	SMILES	Thermodynamic stability, comparison of polymorphs ([2]; ambient temperatures)	Intrinsic dissolution rate, comparison in words ([3]; 1% SDS in HPLC water, 37 °C, 2 hours, compressed tablet 0.5 cm^2)
determined to be Form L eplerenone	240 (≈ 579 µM)	290 (≈ 700 µM)	390 (≈ 941 µM)			COC(=O)[C@@H]1CC2=CC(=O)CC[C@]2(C)[C@@]23O[C@@H]2C[C@@]2(C)C(CC[C@@]24CCC(=O)O4)C13 (some centres unmarked) [Form L eplerenone, methyl hydrogen 9,11-epoxy-17-hydroxy-3-oxopregn-4-ene-7,21-dicarboxylate, γ-lactone]	more thermodynamically stable than Form H at ambient temperatures	
				approximately 30%	entirely composed of Form L eplerenone	COC(=O)[C@@H]1CC2=CC(=O)CC[C@]2(C)[C@@]23O[C@@H]2C[C@@]2(C)C(CC[C@@]24CCC(=O)O4)C13 (some centres unmarked) [Form H eplerenone, methyl hydrogen 9,11-epoxy-17-hydroxy-3-oxopregn-4-ene-7,21-dicarboxylate, γ-lactone]		faster intrinsic dissolution rate than Form L eplerenone
